“Also recorded” adds a separate entry of the source.
Legend:
SNL rats = experiment: Tactile allodynia (von Frey) in SNL (Chung) neuropathic pain model; assay type: in vivo, rat
Procedure: Preparation of SNL (spinal nerve ligation) model: All studies were conducted in keeping with the guidelines of the Institutional Animal Care Committees of the University of California, San Diego and RWJPRI. Male Harlan Sprague-Dawley rats, 100-150 g, were housed in cages with solid bottoms and sawdust bedding, with a 12/12 h reversed light cycle (lights on 2100-900), and allowed free access to food pellets and water. Animals were housed in groups of 2 after surgical interventions. A surgical neuropathy was created as follows, to create a model commonly referred to as the SNL, or spinal nerve ligation model, also commonly referred to as the Chung model. Under isoflurane/oxygen anesthesia, a dorsal midline incision was made from approximately L3-S2. Using a mixture of sharp and blunt dissection, the left L6/S1 posterior interarticular process was exposed and resected to permit adequate visualization of the L6 transverse process, which was gently removed. Careful teasing of the underlying fascia exposed the left L4 and L5 spinal nerves distal to their emergence from the intervertebral foramina. The nerves were gently separated, and the L5 and in some cases either the L4 (for in vitro electrophysiology recordings) or the L6 nerve firmly ligated with 6-0 silk suture material. The wound was then inspected for hemostasis and closed in two layers. Animals with thresholds greater than 4 g were considered unsuccessful preparations(Chaplan et al., (1994) Journal of Neuroscience Methods 53: 55-63).
Behavioral assessment: Behavioral signs of allodynia were documented as follows. Briefly, rats were transferred to a testing cage with a wire mesh bottom and allowed to acclimate for 10-15 minutes. […] Lifting of the paw was recorded as a positive response and the next lightest filament chosen for the next measurement. […]

normal rats = experiment: 55° C. hot plate test of acute thermally-evoked pain; assay type: in vivo, rat; conditions: 10 mg/kg i.p.
Procedure: A cutoff of 20 seconds of thermal surface exposure was employed to prevent tissue damage. Drug administration: Normal rats were administered ZD7288, 10 mg/kg, or an equivalent volume of saline, i.p. at time 0. Behavioral assessments were performed at 45, 60 and 75 minutes after drug administration.

[1] = tested on: rat complete Freund's adjuvant (CFA) model of hindpaw inflammation; experiment: Thermal hyperalgesia (modified Hargreaves apparatus) in rat CFA model of hindpaw inflammation; assay type: in vivo; conditions: 10 mg/kg i.p.
Procedure: However, blockade of HCN channels with ZD7288 at 10 mg/kg, i.p., had no effect on thermal hyperalgesia (measured using a modified Hargreaves apparatus) in two different models of inflammatory pain: the rat carrageenan model of hindpaw inflammation, and the rat complete Freund's adjuvant (CFA) model of hindpaw inflammation. As shown supra, HCN blockade also had little effect on acute thermally evoked pain in the hot plate test.

[2] = tested on: rat mild thermal injury model; experiment: Spontaneous pain behaviors in rat mild thermal injury (first-degree burn) model; assay type: in vivo; conditions: 30 and 60 min after i.p. administration

**Q.** How did the “efficacy of allodynia suppression (% MPE)” value (SNL rats; i.p.) turn out when `CCN(c1ccccc1)c1cc(=NC)n(C)c(C)n1.Cl` [ZD7288] was run?
**A.** 75.7+/−15.4%

**Q.** And the “suppression of tactile allodynia” value (SNL rats; i.p. 1, 3, 10 mg/kg)?
**A.** blocked in a dose dependent manner; also recorded: suppressed the tactile allodynia

**Q.** What about the “untoward behavioral effects / motor function” value (SNL rats; i.p., up to 10 mg/kg) of the same molecule?
**A.** No untoward behavioral effects; also recorded: without overt adverse effects on behavior

**Q.** And the “effect on acute thermally-evoked pain” value (normal rats)?
**A.** minimal effect

**Q.** And the “hot plate latency, difference versus saline” value (normal rats; 45 or 60 min)?
**A.** No statistically significant difference

**Q.** And the “hot plate latency, difference versus saline” value (normal rats; 75 min)?
**A.** approximately 15%

**Q.** And the “effect on thermal hyperalgesia” value [1]?
**A.** no effect

**Q.** And the “suppression of spontaneous pain behaviors” value [2]?
**A.** near complete suppression

Reference: US20030022812A1, “Treating pain by targeting hyperpolarization-activated, cyclic nucleotide-gated channels” (priority 2001, published 2003)
